Tests used:
Assay in all cases: relative viability (nuclei count vs DMSO), 5 days (fraction); higher = more cells survive
Selisistat + OSI-027 = compound: C1CC(C2=C(C1)C3=C(N2)C=CC(=C3)Cl)C(=O)N [Selisistat] + COc1cccc2cc(-c3nc([C@H]4CC[C@H](C(=O)O)CC4)n4ncnc(N)c34)[nH]c12 [OSI-027] (partner 0.5 µM)
How it was run: (§1)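 Lung cancer cell lines, seeded in 1536-well plates, were treated the following day by pin tool with a single drug or with five library-drug doses (not always all listed) in √10 steps on top of a fixed anchor-drug dose. Cells were fixed and nuclei stained in one step after 5 days, and nuclei were counted. Relative viability is the nuclei count for treated wells divided by that for vehicle wells, reported as medians of duplicate plates.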

Selisistat + Pictilisib = compound: C1CC(C2=C(C1)C3=C(N2)C=CC(=C3)Cl)C(=O)N [Selisistat] + CS(=O)(=O)N1CCN(Cc2cc3nc(-c4cccc5[nH]ncc45)nc(N4CCOCC4)c3s2)CC1 [Pictilisib] (partner 1 µM)
How it was run: as §1

Serdemetan + Lapatinib = compound: c1ccc2c(CCNc3ccc(Nc4ccncc4)cc3)c[nH]c2c1 [Serdemetan] + CS(=O)(=O)CCNCc1ccc(-c2ccc3ncnc(Nc4ccc(OCc5cccc(F)c5)c(Cl)c4)c3c2)o1 [Lapatinib] (partner 2 µM)
How it was run: as §1

Serdemetan + Dasatinib = compound: c1ccc2c(CCNc3ccc(Nc4ccncc4)cc3)c[nH]c2c1 [Serdemetan] + Cc1nc(Nc2ncc(C(=O)Nc3c(C)cccc3Cl)s2)cc(N2CCN(CCO)CC2)n1 [Dasatinib] (partner 0.075 µM)
How it was run: as §1

| Cell Line | relative viability (Selisistat + OSI-027; first compound 0.4 µM) | relative viability (Selisistat + OSI-027; first compound 1.265 µM) | relative viability (Selisistat + OSI-027; first compound 4 µM) | relative viability (Selisistat + OSI-027; first compound 12.65 µM) | relative viability (Selisistat + OSI-027; first compound 40 µM) | relative viability (Selisistat + Pictilisib; first compound 0.4 µM) | relative viability (Selisistat + Pictilisib; first compound 1.265 µM) | relative viability (Selisistat + Pictilisib; first compound 4 µM) | relative viability (Selisistat + Pictilisib; first compound 12.65 µM) | relative viability (Selisistat + Pictilisib; first compound 40 µM) | relative viability (Serdemetan + Lapatinib; first compound 0.04 µM) | relative viability (Serdemetan + Lapatinib; first compound 0.1265 µM) | relative viability (Serdemetan + Lapatinib; first compound 0.4 µM) | relative viability (Serdemetan + Lapatinib; first compound 4 µM) | relative viability (Serdemetan + Dasatinib; first compound 0.04 µM) | relative viability (Serdemetan + Dasatinib; first compound 0.1265 µM) | relative viability (Serdemetan + Dasatinib; first compound 0.4 µM) | relative viability (Serdemetan + Dasatinib; first compound 1.265 µM) | relative viability (Serdemetan + Dasatinib; first compound 4 µM) | relative viability (Serdemetan + Lapatinib; first compound 1.265 µM) |
| --- | --- | --- | --- | --- | --- | --- | --- | --- | --- | --- | --- | --- | --- | --- | --- | --- | --- | --- | --- | --- |
| HARA | 0.632 | 0.405 | 0.382 | 0.508 | 0.477 | 0.492 | 0.366 | 0.348 | 0.307 | 0.401 | 0.653 | 0.773 | 0.68 | 0.604 | 0.336 | 0.28 | 0.235 | 0.185 | 0.178 |  |
| NCI-H2087 | 0.646 | 0.645 |  | 0.516 | 0.652 | 0.977 | 0.911 | 0.321 | 0.873 | 0.841 | 1.06 | 0.974 | 1.1 | 0.508 | 0.979 | 0.712 | 0.763 | 0.418 | 0.27 | 0.641 |
| NCI-H1437 | 0.908 | 0.915 | 0.631 | 0.891 | 0.783 | 0.48 | 0.439 | 0.202 | 0.503 | 0.455 | 0.846 | 0.752 | 0.679 | 0.634 | 0.347 | 0.352 | 0.388 | 0.274 | 0.289 | 0.76 |
| NCI-H1792 | 0.745 | 0.68 |  | 0.644 | 0.689 | 0.327 | 0.281 |  | 0.251 | 0.279 | 0.854 | 0.863 | 0.86 | 0.676 | 0.746 | 0.773 | 0.747 | 0.533 | 0.493 | 0.646 |
| NCI-H650 | 0.524 | 0.523 | 0.715 | 0.496 | 0.555 | 0.746 |  | 1.11 | 0.594 | 0.807 | 0.779 | 0.844 | 1.05 | 0.669 | 0.424 | 0.449 | 0.451 | 0.35 | 0.43 | 0.667 |
| COR-L23 | 0.866 | 0.803 | 0.799 | 0.653 | 0.653 | 0.821 | 0.78 | 0.899 | 0.701 | 0.689 | 0.916 | 0.924 | 1.03 | 0.78 | 0.46 | 0.468 | 0.41 | 0.379 | 0.452 | 0.422 |
| COR-L 105 | 0.755 | 0.624 |  | 0.712 | 0.584 | 0.432 | 0.412 | 0.322 | 0.405 | 0.418 | 0.384 | 0.372 | 0.284 | 0.363 | 0.326 | 0.351 | 0.306 | 0.319 | 0.337 | 0.335 |
| LK-2 | 0.196 | 0.179 | 0.174 | 0.179 | 0.255 | 0.645 | 0.502 | 0.575 | 0.499 | 0.456 | 0.899 | 0.873 | 1.03 | 0.757 | 0.315 | 0.269 | 0.334 | 0.233 | 0.379 | 0.884 |
| 201T | 0.797 | 0.705 | 0.555 | 0.587 | 0.739 | 0.69 | 0.648 | 0.58 | 0.673 | 0.685 | 0.976 | 0.943 | 1.04 | 0.94 | 0.568 | 0.508 | 0.546 | 0.449 | 0.464 | 0.937 |
| NCI-H596 | 0.793 | 0.692 | 0.505 | 0.698 | 0.732 | 0.372 | 0.411 | 0.391 | 0.434 | 0.434 | 1.07 | 0.972 | 1.09 | 0.666 | 0.677 | 0.637 | 0.645 | 0.565 | 0.522 | 0.871 |
| H3255 | 0.621 | 0.553 | 0.741 | 0.579 | 0.648 | 0.508 | 0.41 | 0.481 | 0.494 | 0.532 | 0.222 | 0.229 | 0.258 | 0.186 | 0.422 | 0.384 | 0.258 | 0.323 | 0.431 | 0.251 |
| NCI-H647 | 0.746 | 0.58 | 0.614 | 0.713 | 0.829 | 0.488 |  | 0.289 | 0.422 | 0.361 | 1.06 | 1.11 | 1.1 | 0.475 | 0.217 | 0.153 | 0.156 | 0.184 | 0.167 | 0.669 |
| NCI-H2023 | 0.492 | 0.405 | 0.347 | 0.401 | 0.406 | 0.25 | 0.265 | 0.201 | 0.255 | 0.222 | 0.709 | 0.861 | 0.742 | 0.253 | 0.521 | 0.674 | 0.532 | 0.43 | 0.233 | 0.387 |
| NCI-H23 | 0.56 | 0.602 | 0.508 | 0.529 | 0.605 | 0.562 | 0.462 |  | 0.567 | 0.51 | 1.11 | 1.19 | 1.13 | 1.07 | 0.734 | 0.877 | 0.794 | 0.548 | 0.914 | 0.818 |
| NCI-H1944 | 0.485 | 0.394 |  | 0.433 | 0.441 | 0.335 | 0.363 |  | 0.346 | 0.395 | 0.788 | 0.7 | 0.768 | 0.494 | 0.201 | 0.212 | 0.218 | 0.131 | 0.164 |  |
| NCI-H1793 | 0.28 | 0.245 |  | 0.299 | 0.345 | 0.311 | 0.275 |  | 0.287 | 0.516 | 0.644 | 0.679 | 0.637 | 0.625 | 0.355 | 0.308 | 0.383 | 0.21 | 0.259 | 0.38 |
| NCI-H520 | 0.311 | 0.216 | 0.257 | 0.248 | 0.206 | 0.262 | 0.304 | 0.15 | 0.294 | 0.354 | 0.791 | 0.91 | 0.813 | 0.614 | 0.244 | 0.182 | 0.223 |  | 0.198 | 0.813 |

From the supplement of paper PMC10307832
